This is an account of results in patent US20250066377A1, “AMINO CHROMEN-2-ONE MODULATORS OF POLRMT” (Pretzel Therapeutics, Inc., priority 2021, published 2025).

Where only a bound is given, the exact number is not on record here.

POLRMT, sequence (O00411 42-1230): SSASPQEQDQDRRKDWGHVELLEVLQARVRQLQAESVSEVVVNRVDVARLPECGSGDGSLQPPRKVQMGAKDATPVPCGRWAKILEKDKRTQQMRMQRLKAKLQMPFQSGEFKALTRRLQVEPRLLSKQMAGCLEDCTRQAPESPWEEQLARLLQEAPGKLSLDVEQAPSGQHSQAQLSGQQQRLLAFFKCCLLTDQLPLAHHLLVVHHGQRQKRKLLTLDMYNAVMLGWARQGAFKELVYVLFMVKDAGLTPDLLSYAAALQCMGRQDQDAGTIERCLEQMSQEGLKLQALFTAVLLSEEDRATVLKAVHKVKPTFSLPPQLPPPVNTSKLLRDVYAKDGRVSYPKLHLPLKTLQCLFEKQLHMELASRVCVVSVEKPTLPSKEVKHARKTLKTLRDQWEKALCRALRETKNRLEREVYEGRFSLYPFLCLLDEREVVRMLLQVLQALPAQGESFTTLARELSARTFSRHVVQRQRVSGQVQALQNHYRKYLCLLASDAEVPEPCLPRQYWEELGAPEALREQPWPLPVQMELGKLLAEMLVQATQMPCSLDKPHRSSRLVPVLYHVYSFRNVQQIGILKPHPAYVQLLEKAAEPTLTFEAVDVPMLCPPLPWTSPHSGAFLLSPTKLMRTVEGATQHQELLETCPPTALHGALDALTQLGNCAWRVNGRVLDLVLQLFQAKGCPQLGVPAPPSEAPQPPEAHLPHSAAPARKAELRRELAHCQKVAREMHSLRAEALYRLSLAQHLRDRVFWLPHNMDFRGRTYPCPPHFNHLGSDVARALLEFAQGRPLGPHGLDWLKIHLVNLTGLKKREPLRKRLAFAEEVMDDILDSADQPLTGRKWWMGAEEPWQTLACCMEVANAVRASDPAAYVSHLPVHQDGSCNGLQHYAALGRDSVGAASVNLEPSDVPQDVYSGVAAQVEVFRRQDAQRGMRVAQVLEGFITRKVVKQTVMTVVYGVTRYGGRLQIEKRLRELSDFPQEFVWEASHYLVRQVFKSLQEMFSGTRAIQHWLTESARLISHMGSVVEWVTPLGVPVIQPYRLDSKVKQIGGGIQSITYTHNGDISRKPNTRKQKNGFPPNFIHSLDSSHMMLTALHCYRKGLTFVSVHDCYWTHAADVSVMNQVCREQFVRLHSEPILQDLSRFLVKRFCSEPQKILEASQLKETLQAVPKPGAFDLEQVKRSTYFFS

The assay concerns the target POLRMT (Homo sapiens (Human), UniProt O00411). Nature of the assay: POLRMT homogeneous TR-FRET mitochondrial transcription assay. The assay is classed as biochemical. As to conditions: inhibition of POLRMT; TR-FRET detection of 407 bp RNA transcript; 7.5 nM POLRMT, 15 nM TFB2M, 30 nM TFAM, 60 minutes at 37° C. As to the method: The inhibitory activity of the compounds of the present invention against POLRMT were determined by assays based on Bergbrede, T., et al., “An adaptable high-throughput technology enabling the identification of specific transcription modulators,” SLAC Discov., 22, 378-386 (2017).
The ability of some compounds of the present invention to inhibit POLRMT were determined in a homogeneous TR-FRET Assay using high-throughput screening in a 384-well plate format. This method is used to monitor the activity of mitochondrial transcription through measurement of its product, a 407 bp long RNA transcript. Detection of the product is facilitated by hybridization of two DNA-oligonucleotide probes to specific and adjacent sequences within the RNA product sequence. Upon annealing of the probes, two fluorophores are coupled directly to an acceptor nucleotide probe (ATTO647, 5′), or introduced via a coupled streptavidin with a biotinylated donor nucleotide probe (Europium cryptate) that is brought into sufficient proximity to serve as a fluorescence-donor-acceptor pair. Thus, a FRET signal at 665 nm is generated upon excitation at 340 nm.
Proteins used as transcription factors (POLRMT: NP_005026.3, TFAM: NP_003192.1, TFB2M: NP_071761.1) are diluted from their stocks to working concentrations of 1 μM, 20 μM and 4 μM respectively, in a dilution buffer containing 20 mM Tris-HCl (pH 8.0), 200 mM NaCl, 10% (v/v) glycerol, 1 mM Dithiothreitol (DTT), 0.5 mM EDTA.
DNA template is a pUC18 plasmid with the mitochondrial light strand promotor sequence (1-477) cloned between HindIII and BamHI sites. The DNA template is restriction linearized proximal to the promotor 3′-end (pUC-LSP).
The reaction mixture (10 uL) containing 7.5 nM POLRMT, 15 nM of TFB2M, 30 nM of TFAM, 0.5 nM of DNA template and 500 μM nucleotide triphosphate mix (NTPs) in a reaction buffer (containing 10 mM Tris-HCl (pH 7.5), 10 mM MgCl2, 40 mM NaCl, 10 mM DTT, 0.005% (w/v) Tween-20, 160 units/ml Rnase inhibitor and 0.1 mg/mL BSA) are dispensed to compounds in microplates, using a Thermo Multidrop® dispenser, and incubated at 37° C. in a VWR INCU-Line incubator for 60 minutes after mixing. No nucleotide triphosphate mix is added to negative control samples. Microplates with compounds to be tested in the assay are prepared from 10 mM compound stocks in 100% DMSO, equal amounts of DMSO without any compound are added to positive control and negative control samples.
During the incubation, a mix of the detection reagents is prepared in a buffer such that the enzymatic reaction is terminated due to chelating of Mg-ions and increased ionic strength, containing 50 mM Tris-HCl (pH 7.5), 700 mM NaCl, 20 mM EDTA, and 0.01% (w/v) Tween-20. Europium-streptavidin is pre-incubated with a 200-fold molar excess of a random sequence oligonucleotide to block unspecific binding of oligo, for two hours at ambient temperature in the dark. Afterwards, the blocked Europium-streptavidin is kept on ice until use.
At the end of the enzymatic reaction time, 5 μL detection oligo mix in the detection buffer is added, and assay plates are mixed and kept at ambient temperature for one hour, protected from light. The concentration of the Acceptor nucleotide oligo (e.g., ATTO647N-5′-[…]-3′) and Donor nucleotide oligo (e.g., bio-5′-AACACATCTCT(-bio)GCCAAACCCCA-bio-3′) in each assay well is 1 nM, and 3 nM, respectively.
After incubation with oligo mix, 5 μL of pre-blocked Europium-streptavidin reagent is dispensed to each assay well, assay plates are again mixed and kept at ambient temperature for one hour, protected from light.
The generated signal is measured with BMG Pherastar microtiter plate reader with a TRF light unit, using excitation at 340 nm, an integration time of 200 μs, and a delay time of 100 μs, before detection at 620 nm and 665 nm. The ratio of donor- and acceptor-fluorescence is used as a measure of the generated transcript product (i.e. enzymatic activity).
Background: Time-resolved FRET reads energy transfer from a long-lived donor to a nearby acceptor.
Broadly, the IC50 is the concentration that inhibits the measured activity by half. In turn, `COC(=O)CN(C)c1ccc2c(-c3ccccc3C)cc(=O)oc2n1` [Example 35, methyl N-methyl-N-(2-oxo-4-(o-tolyl)-2H-pyrano[2,3-b]pyridin-7-yl)glycinate] displayed an IC50 of 200 nM.
With `Cc1ccccc1-c1cc(=O)oc2nc(N(C)CC(N)=O)ccc12` [Example 40, 2-[methyl-[4-(o-tolyl)-2-oxo-pyrano[2,3-b]pyridin-7-yl]amino]acetamide], the IC50 amounted to 500 nM.
The result for `Cc1ccccc1-c1cc(=O)oc2nc(N(C)C)ccc12` [Example 01, 7-(dimethylamino)-4-(o-tolyl)-2H-pyrano[2,3-b]pyridin-2-one] reads 1000 nM; that for `Cc1ccccc1-c1cc(=O)oc2nc(N3CCOCC3C)ccc12` (single isomer, unassigned) [Example 15, 7-(3-methylmorpholino)-4-(o-tolyl)-2H-pyrano[2,3-b]pyridin-2-one], 2000 nM.
The result for `COC1CCN(c2ccc3c(-c4ccccc4C)cc(=O)oc3n2)C1` (single isomer, unassigned) [Example 24, 7-(3-methoxypyrrolidin-1-yl)-4-(o-tolyl)-2H-pyrano[2,3-b]pyridin-2-one] reads 3000 nM; that for `Cc1ccccc1-c1cc(=O)oc2nc(N3CCC(C(=O)O)C3)ccc12` (single isomer, unassigned) [Example 34, 1-(2-oxo-4-(o-tolyl)-2H-pyrano[2,3-b]pyridin-7-yl)pyrrolidine-3-carboxylic acid], 20000 nM; that for `Cc1ccccc1-c1cc(=O)oc2nc(N3CCN(C)CC3)ccc12` [Example 09, 7-(4-methylpiperazin-1-yl)-4-(o-tolyl)pyrano[2,3-b]pyridin-2-one], greater than 100000 nM.
`Cc1ccccc1-c1cc(=O)oc2nc(N(C)CCC(=O)O)ccc12` [Example 41, 3-[methyl-[4-(o-tolyl)-2-oxo-pyrano[2,3-b]pyridin-7-yl]amino]propanoic acid]: the IC50 is 7000 nM.
The result for `COCCN(C)c1ccc2c(-c3ccccc3C)cc(=O)oc2n1` [Example 04, 7-((2-methoxyethyl)(methyl)amino)-4-(o-tolyl)-2H-pyrano[2,3-b]pyridin-2-one] reads 2000 nM; that for `CN(CCC(=O)O)c1ccc2c(-c3ccc(F)cc3Cl)cc(=O)oc2n1` [Example 55, 3-((4-(2-chloro-4-fluorophenyl)-2-oxo-2H-pyrano[2,3-b]pyridin-7-yl)(methyl)amino)propanoic acid], 12000 nM; that for `COCC1CCN(c2ccc3c(-c4ccccc4C)cc(=O)oc3n2)C1` (single isomer, unassigned) [Example 32, 7-(3-(methoxymethyl)pyrrolidin-1-yl)-4-(o-tolyl)-2H-pyrano[2,3-b]pyridin-2-one], 1000 nM.
`COC(=O)[C@@H](C)N(C)c1ccc2c(-c3ccc(F)cc3Cl)cc(=O)oc2n1` [Example 54, methyl N-(4-(2-chloro-4-fluorophenyl)-2-oxo-2H-pyrano[2,3-b]pyridin-7-yl)-N-methyl-D-alaninate] displayed a 50% inhibitory concentration (IC50) of 200 nM.
The figure for `Cc1ccccc1-c1cc(=O)oc2nc(N3CCC(F)(F)C3)ccc12` [Example 17, 7-(3,3-difluoropyrrolidin-1-yl)-4-(o-tolyl)-2H-pyrano[2,3-b]pyridin-2-one] is 600 nM.
The figure for `Cc1ccccc1-c1cc(=O)oc2nc(N3CCC(C)(O)C3)ccc12` (single isomer, unassigned) [Example 27, 7-(3-hydroxy-3-methylpyrrolidin-1-yl)-4-(o-tolyl)-2H-pyrano[2,3-b]pyridin-2-one] is 1000 nM.
The figure for `Cc1ccccc1-c1cc(=O)oc2nc(N3CCC(C(N)=O)C3)ccc12` (single isomer, unassigned) [Example 29, 1-(2-oxo-4-(o-tolyl)-2H-pyrano[2,3-b]pyridin-7-yl)pyrrolidine-3-carboxamide] is 7000 nM; for `CCN(C)c1ccc2c(-c3ccccc3C)cc(=O)oc2n1` [Example 05, 7-(ethyl(methyl)amino)-4-(o-tolyl)-2H-pyrano[2,3-b]pyridin-2-one] it is 400 nM; for `Cc1ccccc1-c1cc(=O)oc2nc(N3CCC(C(=O)O)C3)ccc12` (single isomer, unassigned) [Example 33, 1-(2-oxo-4-(o-tolyl)-2H-pyrano[2,3-b]pyridin-7-yl)pyrrolidine-3-carboxylic acid] it is 7000 nM.
The compound `Cc1cccc(C)c1-c1cc(=O)oc2nc(N(C)CC(N)=O)ccc12` [Example 56, 2-((4-(2,6-dimethylphenyl)-2-oxo-2H-pyrano[2,3-b]pyridin-7-yl)(methyl)amino)acetamide] had an IC50 of 200 nM.
The result for `Cc1ccccc1-c1cc(=O)oc2nc(N3CC4(COC4)C3)ccc12` [Example 10, 7-(2-oxa-6-azaspiro[3.3]heptan-6-yl)-4-(o-tolyl)-2H-pyrano[2,3-b]pyridin-2-one] reads 86000 nM; that for `CN(CC(=O)O)c1ccc2c(-c3ccc(F)cc3Cl)cc(=O)oc2n1` [Example 44, N-(4-(2-chloro-4-fluorophenyl)-2-oxo-2H-pyrano[2,3-b]pyridin-7-yl)-N-methylglycine], 5000 nM.
The figure for `Cc1ccccc1-c1cc(=O)oc2nc(N3CCOCC3C)ccc12` (single isomer, unassigned) [Example 14, 7-(3-methylmorpholino)-4-(o-tolyl)-2H-pyrano[2,3-b]pyridin-2-one] is 400 nM.
The result for `COC1CN(c2ccc3c(-c4ccccc4C)cc(=O)oc3n2)C1` [Example 20, 7-(3-methoxyazetidin-1-yl)-4-(o-tolyl)-2H-pyrano[2,3-b]pyridin-2-one] reads 2000 nM.
In turn, `CNC(=O)CN(C)c1ccc2c(-c3ccc(F)cc3Cl)cc(=O)oc2n1` [Example 45, 2-((4-(2-chloro-4-fluorophenyl)-2-oxo-2H-pyrano[2,3-b]pyridin-7-yl)(methyl)amino)-N-methylacetamide] yielded an IC50 of 1000 nM.
Consider `Cc1ccccc1-c1cc(=O)oc2nc(N3CCC(C)(O)C3)ccc12` (single isomer, unassigned) [Example 28, 7-(3-hydroxy-3-methylpyrrolidin-1-yl)-4-(o-tolyl)-2H-pyrano[2,3-b]pyridin-2-one], for which inhibition was half-maximal at 1000 nM (IC50).
`COC1CCN(c2ccc3c(-c4ccccc4C)cc(=O)oc3n2)C1` (racemic) [Example 07, 7-(3-methoxypyrrolidin-1-yl)-4-(o-tolyl)-2H-pyrano[2,3-b]pyridin-2-one] came in with an IC50 of 400 nM.
`CNC(=O)CCN(C)c1ccc2c(-c3ccccc3C)cc(=O)oc2n1` [Example 43] gave an IC50 of 7000 nM.
The result for `COCC1CCN(c2ccc3c(-c4ccccc4C)cc(=O)oc3n2)C1` (racemic) [Example 12, 7-(3-(methoxymethyl)pyrrolidin-1-yl)-4-(o-tolyl)-2H-pyrano[2,3-b]pyridin-2-one] reads 900 nM.
Turning to `Cc1ccccc1-c1cc(=O)oc2nc(N(C)CC(=O)O)ccc12` [Example 36, N-methyl-N-(2-oxo-4-(o-tolyl)-2H-pyrano[2,3-b]pyridin-7-yl)glycine], the IC50 stood at 1000 nM.
The result for `COCC1CCN(c2ccc3c(-c4ccccc4C)cc(=O)oc3n2)C1` (single isomer, unassigned) [Example 31, 7-(3-(methoxymethyl)pyrrolidin-1-yl)-4-(o-tolyl)-2H-pyrano[2,3-b]pyridin-2-one] reads 400 nM; that for `Cc1ccccc1-c1cc(=O)oc2nc(N(C)CCC(N)=O)ccc12` [Example 42], 3000 nM.
